Among the data in patent publication US8546376B2, “Pharmaceutical compounds” (Almac Discovery Limited, priority 2009, dated 2013) are IC50 values, retold here.

Common to all, as to assay type: biochemical
For experiment [1], the target named is T1, AKT2 (Homo sapiens, UniProt P31751).
T1 construct: purchased SignalChem
As to the kind of experiment: AKT Kinase Assay (IMAP fluorescent polarisation) vs AKT2. The following applies: activated AKT2, FAM Crosstide substrate. How it is done:
(§1) Testing of the compounds was performed using an AKT Kinase Assay:
(§2) Activated AKT isoforms 1, 2 and 3 were assayed utilising a 5′ FAM Crosstide (Seq. GRPRTSSFAEG-OH). The extent of kinase phosphorylation was determined by fluorescent polarisation using IMAP progressive binding reagent, which introduces binding beads which allow the reagent to specifically bind to phosphate residues via covalent co-ordination complex bonds.
(§3) iMAP binding solution stops Crosstide/kinase interaction and specifically binds phosphorylated substrates. The degree of phosphorylation is determined by fluorescent polarisation (excitation 485 nm; emission 528 nm) or the reduction in speed of rotation of the excited substrate.
(§4) The following materials were used in the assay: • a) Activated AKT isoforms (SignalChem.) dissolved in Complete Reaction buffer at a pre-determined concentration selected so that the assay was carried out in the linear range. • b) AKT substrate peptide: FAM Crosstide (R7110) Molecular Devices, diluted in complete reaction buffer. • c) iMAP Progressive Screening Express Kit (R8127) Molecular Devices • d) Complete Reaction Buffer containing 0.1% BSA, 10 mM Tris-HCl, 10 mM MgCl2, 0.05% NaN3 and 0.01% phosphate free BSA, 1 mM DTT • e) Progressive Binding Solution containing 75% Buffer A, 25% Buffer B and low volume Binding Reagent which contains the binding entity for the assay • f) ATP diluted in complete reaction buffer • g) Black polystyrene 384 well assay plates (Nunc). • h) Biotek Synergy 4 Hybrid Plate reader.
(§5) 5 μl of test compound was dissolved in DMSO (Sigma Aldrich) and serially diluted in complete reaction buffer to give a fourteen point half log dose response and plated into 384 well black plates. The compound was incubated at room temperature with activated AKT isoform (5 μl) at the pre-determined concentration, for 45 minutes.
(§6) 2.5 μl of ATP solution mixed with 2.5 μl of AKT substrate peptide (FAM Crosstide (R7110) Molecular Devices) were dispensed into each well and the plate centrifuged at 1000 rpm for 20 seconds to ensure homogenous mixing of reagents. The reaction mix was incubated in the dark for one hour at room temperature.
(§7) The kinase reaction was stopped by the addition of Progressive Binding Solution and the mixture allowed to equilibrate for one hour in the dark, at room temperature.
(§8) The fluorescent polarisation generated in each well was determined using a […] Synergy 4 Hybrid plate reader. In brief, each reaction solution was excited at 485 nm with the emission measured at 528 nm in both the parallel and perpendicular pathway.
(§9) The polarisation value generated in each well was calculated by Gen5 software (Biotek) and the % inhibition of kinase activity compared to vehicle control was calculated via GraphPad Prism. IC50 values for each compound were calculated by non-linear regression analysis using Prism software.
(§10) All plates were internally controlled by two methods. Firstly, by calculating the signal:noise ratio; based on kinase polarisation without inhibitor and polarisation generated by complete reaction buffer in the absence of activated kinase. Secondly by determining IC50 values generated by known inhibitors of the AKT isoforms.

In experiment [2] the target is T2, AKT3 (Homo sapiens, UniProt Q9Y243).
T2 construct: purchased SignalChem
As to the kind of experiment: AKT Kinase Assay (IMAP fluorescent polarisation) vs AKT3. The following applies: activated AKT3, FAM Crosstide substrate. The method, then: as §1, §2, §3, §4, §5, §6, §7, §8, §9, §10

Experiment [3] addresses T3, AKT1 (Homo sapiens, UniProt P31749).
T3 construct: purchased SignalChem
As to the kind of experiment: AKT Kinase Assay (IMAP fluorescent polarisation) vs AKT1. The following applies: activated AKT1, FAM Crosstide substrate. How it is done: as §1, §2, §3, §4, §5, §6, §7, §8, §9, §10

Each structure is given as a SMILES string. Structures can show the parent of a compound that is named as a salt.

T2 sequence (Q9Y243 whole entry): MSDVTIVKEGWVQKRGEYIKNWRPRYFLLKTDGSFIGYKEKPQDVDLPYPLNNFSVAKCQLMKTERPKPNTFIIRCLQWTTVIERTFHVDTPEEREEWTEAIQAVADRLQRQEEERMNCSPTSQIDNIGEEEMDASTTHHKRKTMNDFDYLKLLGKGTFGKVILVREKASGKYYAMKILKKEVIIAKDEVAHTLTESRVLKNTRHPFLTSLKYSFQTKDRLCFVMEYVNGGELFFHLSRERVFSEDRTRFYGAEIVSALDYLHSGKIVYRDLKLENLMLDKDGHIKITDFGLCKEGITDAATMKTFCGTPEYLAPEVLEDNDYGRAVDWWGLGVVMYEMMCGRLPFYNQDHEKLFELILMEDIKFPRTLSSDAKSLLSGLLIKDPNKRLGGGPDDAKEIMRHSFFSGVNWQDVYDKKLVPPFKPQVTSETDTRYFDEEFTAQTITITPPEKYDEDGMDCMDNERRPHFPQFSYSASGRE
T1 sequence (P31751 whole entry): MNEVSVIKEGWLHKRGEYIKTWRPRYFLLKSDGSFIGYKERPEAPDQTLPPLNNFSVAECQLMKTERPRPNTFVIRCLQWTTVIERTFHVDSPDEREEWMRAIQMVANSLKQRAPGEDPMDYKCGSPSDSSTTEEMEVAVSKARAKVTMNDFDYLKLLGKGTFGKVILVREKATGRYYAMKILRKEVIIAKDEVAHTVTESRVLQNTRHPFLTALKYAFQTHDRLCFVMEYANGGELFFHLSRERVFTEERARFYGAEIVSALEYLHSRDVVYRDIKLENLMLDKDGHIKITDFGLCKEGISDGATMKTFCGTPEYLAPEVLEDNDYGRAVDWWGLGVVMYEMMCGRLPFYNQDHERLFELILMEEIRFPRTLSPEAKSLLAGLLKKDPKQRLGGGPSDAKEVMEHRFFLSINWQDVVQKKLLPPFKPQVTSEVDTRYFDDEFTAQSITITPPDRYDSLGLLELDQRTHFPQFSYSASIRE
T3 sequence (P31749 whole entry): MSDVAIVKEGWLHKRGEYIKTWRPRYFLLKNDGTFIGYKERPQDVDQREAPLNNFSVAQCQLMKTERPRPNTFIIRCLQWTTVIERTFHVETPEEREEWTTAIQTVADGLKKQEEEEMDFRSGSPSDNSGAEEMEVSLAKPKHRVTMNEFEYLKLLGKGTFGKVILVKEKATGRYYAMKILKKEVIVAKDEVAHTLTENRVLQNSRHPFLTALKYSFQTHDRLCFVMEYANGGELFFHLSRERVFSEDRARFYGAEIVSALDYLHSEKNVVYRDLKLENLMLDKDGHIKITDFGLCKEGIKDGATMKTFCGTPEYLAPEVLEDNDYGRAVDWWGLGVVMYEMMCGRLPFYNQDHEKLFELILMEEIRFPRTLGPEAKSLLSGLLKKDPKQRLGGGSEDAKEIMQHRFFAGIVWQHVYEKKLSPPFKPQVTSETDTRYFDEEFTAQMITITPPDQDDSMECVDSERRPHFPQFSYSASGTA

As for `CN1C(=O)COc2c1ccc1c(=O)c(-c3ccc(C4(N)CCC4)cc3)c(-c3ccccc3)oc21` [Example 112, 8-(4-(1-aminocyclobutyl)phenyl)-4-methyl-9-phenylchromeno[8,7-b][1,4]oxazine-3,7(2H,4H)-dione], the IC50 in experiment [1] is ≤ 1000 nM; in experiment [2] it was 1000 to 10000 nM; in experiment [3] it was ≤ 1000 nM.
Regarding `NC1(c2ccc(-c3c(-c4ccccc4)oc4nc(Cl)ccc4c3=O)cc2)CCC1` [Example 38, 3-[4-(1-Amino-cyclobutyl)-phenyl]-7-chloro-2-phenyl-pyrano[2,3-b]pyridin-4], the IC50 is 1000 to 10000 nM in experiment [1], > 10000 nM in experiment [2] and 1000 to 10000 nM in experiment [3].
For `CS(=O)(=O)c1ccccc1-c1nccc2c(=O)c(-c3ccc(C4(N)CCC4)cc3)c(-c3ccccc3)oc12` [Example 119, 3-(4-(1-aminocyclobutyl)phenyl)-8-(2-(methylsulfonyl)phenyl)-2-phenyl-4H-pyrano[2,3-c]pyridin-4-one], the IC50 in experiment [1] is 1000 to 10000 nM; in experiment [2], > 10000 nM; in experiment [3] it was 1000 to 10000 nM.
For the molecule `COc1ccc2c(=O)c(-c3ccc(C4(N)CCC4)cc3)c(-c3ccccc3)oc2c1C(N)=O` [Example 50, 3-[4-(1-Amino-cyclobutyl)-phenyl]-7-methoxy-4-oxo-2-phenyl-4H-chromene-8-carboxylic acid amide hydrochloride], the IC50 was 1000 to 10000 nM in experiment [1], 1000 to 10000 nM in experiment [2] and ≤ 1000 nM in experiment [3].
With `NC1(c2ccc(-c3c(-c4ccccc4)oc4[nH]c(=O)ccc4c3=O)cc2)CCC1` [Example 36, 3-[4-(1-Amino-cyclobutyl)-phenyl]-2-phenyl-8H-pyrano[2,3-b]pyridine-4,7-dione hydrochloride], the IC50 in experiment [1] was 1000 to 10000 nM; in experiment [2], > 10000 nM; in experiment [3], 1000 to 10000 nM.
For the molecule `Cn1cc(-c2nccc3c(=O)c(-c4ccc(C5(N)CCC5)cc4)c(-c4ccccc4)oc23)cn1` [Example 101, 3-[4-(1-Amino-cyclobutyl)-phenyl]-8-(1-methyl-1H-pyrazol-4-yl)-2-phenyl-pyrano[2,3-c]pyridin-4-one hydrochloride], the IC50 in experiment [1], in experiment [2] and in experiment [3] was ≤ 1000 nM each time.
As for `COc1nccc2c(=O)c(-c3ccc(C4(N)CCC4)cc3)c(-c3ccccc3)oc12` [Example 39, 3-[4-(1-Amino-cyclobutyl)-phenyl]-8-methoxy-2-phenyl-pyrano[2,3-c]pyridin-4-one hydrochloride], the values for the IC50 in experiment [1], in experiment [2] and in experiment [3] were ≤ 1000 nM, 1000 to 10000 nM and ≤ 1000 nM, respectively.
For the molecule `COc1cc2c(=O)c(-c3ccc(C4(N)CCC4)cc3)c(-c3ccccc3)oc2cc1C#N` [Example 30, 3-[4-(1-Amino-cyclobutyl)-phenyl]-6-methoxy-4-oxo-2-phenyl-4H-chromene-7-carbonitrile], the IC50 in experiment [1] was 1000 to 10000 nM; in experiment [2], 1000 to 10000 nM; in experiment [3], > 10000 nM.
As for `NC1(c2ccc(-c3c(-c4ccccc4)oc4c(-c5c[nH]nn5)cccc4c3=O)cc2)CCC1` [Example 106, 3-[4-(1-Amino-cyclobutyl)-phenyl]-2-phenyl-8-(1H-[1,2,3]triazol-4-yl)-chromen-4-one], the IC50 in experiment [1], in experiment [2] and in experiment [3] was ≤ 1000 nM in each case.
As to `NC1(c2ccc(-c3c(-c4ccccc4)oc4c(ccc5c(Cl)n[nH]c54)c3=O)cc2)CCC1` [Example 99, 7-[4-(1-Amino-cyclobutyl)-phenyl]-3-chloro-8-phenyl-1H-9-oxa-1,2-diaza-cyclopenta[a]naphthalen-6-one hydrochloride], the values for the IC50 in experiment [1], in experiment [2] and in experiment [3] were 1000 to 10000 nM, 1000 to 10000 nM and ≤ 1000 nM, respectively.
`N#Cc1cccc(-c2nccc3c(=O)c(-c4ccc(C5(N)CCC5)cc4)c(-c4ccccc4)oc23)c1` [Example 122]: the figures for the IC50 in experiment [1], in experiment [2] and in experiment [3] were ≤ 1000 nM, > 10000 nM and ≤ 1000 nM, respectively.
Regarding `NC1(c2ccc(-c3c(-c4ccccc4)oc4c(-c5cccnc5)nccc4c3=O)cc2)CCC1` [Example 123, 3-(4-(1-aminocyclobutyl)phenyl)-2-phenyl-8-(pyridin-3-yl)-4H-pyrano[2,3-c]pyridin-4-one hydrochloride], the values for the IC50 in experiment [1], in experiment [2] and in experiment [3] were ≤ 1000 nM, 1000 to 10000 nM and ≤ 1000 nM, respectively.
Regarding `Cc1n[nH]cc1-c1cccc2c(=O)c(-c3ccc(C4(N)CCC4)cc3)c(-c3ccccc3)oc12` [Example 73, 3-[4-(1-Amino-cyclobutyl)-phenyl]-8-(3-methyl-1H-pyrazol-4-yl)-2-phenyl-chromen-4-one hydrochloride], the values for the IC50 in experiment [1], in experiment [2] and in experiment [3] were ≤ 1000 nM, 1000 to 10000 nM and ≤ 1000 nM, respectively.
For the molecule `NC1(c2ccc(-c3c(-c4ccccc4)oc4cc(-c5ccn[nH]5)ccc4c3=O)cc2)CCC1` [Example 17], the IC50 in experiment [1] is 1000 to 10000 nM; in experiment [2] it was > 10000 nM; in experiment [3], > 10000 nM.
Take `NC1(c2ccc(-c3c(-c4ccccc4)oc4c(ccc5nn[nH]c54)c3=O)cc2)CCC1` [Example 88, 7-[4-(1-Amino-cyclobutyl)-phenyl]-8-phenyl-1H-9-oxa-1,2,3-triaza-cyclopenta[a]naphthalen-6-one]: the IC50 in experiment [1] is ≤ 1000 nM; in experiment [2] it was > 10000 nM; in experiment [3] it was ≤ 1000 nM.
Consider `NC1(c2ccc(-c3c(-c4ccccc4)oc4c(ccn5c(=O)[nH]nc45)c3=O)cn2)CCC1` [Example 69, 7-[6-(1-Amino-cyclobutyl)-pyridin-3-yl]-8-phenyl-2H-9-oxa-1,2,3a-triaza-cyclopenta[a]naphthalene-3,6-dione], for which the IC50 in experiment [1] is 1000 to 10000 nM; in experiment [2] it was > 10000 nM; in experiment [3], ≤ 1000 nM.
The like results for `NC1(c2ccc(-c3c(-c4ccccc4)oc4c(C5CC5)nccc4c3=O)cc2)CCC1` [Example 126, hydrochloride] were, in that order, 1000 to 10000 nM, > 10000 nM and ≤ 1000 nM.
`COc1ccc2c(=O)c(-c3ccc(C4(N)CCC4)cc3)c(-c3ccccc3)oc2c1Br` [Example 9, 3-[4-(1-Amino-cyclobutyl)-phenyl]-8-bromo-7-methoxy-2-phenyl-chromen-4-one]: the results for the IC50 in experiment [1], in experiment [2] and in experiment [3] were ≤ 1000 nM, 1000 to 10000 nM and ≤ 1000 nM, respectively.
As for `NC1(c2ccc(-c3c(-c4ccccc4)oc4ccc(F)cc4c3=O)cc2)CCC1` [Example 1, 3-[4-(1-Amino-cyclobutyl)-phenyl]-6-fluoro-2-phenyl-chromen-4-one], the IC50 in experiment [1] is 1000 to 10000 nM; in experiment [2] it was > 10000 nM; in experiment [3], 1000 to 10000 nM.
Consider `NC1(c2ccc(-c3c(-c4ccccc4)oc4c5c(ccc4c3=O)NC(=O)CO5)cc2)CCC1` [Example 92, 7-[4-(1-Amino-cyclobutyl)-phenyl]-6-phenyl-1H-4,5-dioxa-1-aza-phenanthrene-2,8-dione], for which the IC50 is ≤ 1000 nM in experiment [1], 1000 to 10000 nM in experiment [2] and ≤ 1000 nM in experiment [3].
Take `NC1(c2ccc(-c3c(-c4ccccc4)oc4c(ccn5c(=O)[nH]nc45)c3=O)cc2)CCC1` [Example 63, 7-[4-(1-Amino-cyclobutyl)-phenyl]-8-phenyl-2H-9-oxa-1,2,3a-triaza-cyclopenta[a]naphthalene-3,6-dione hydrochloride]: the IC50 in experiment [1], in experiment [2] and in experiment [3] was ≤ 1000 nM in each case.

One may read the IC50 as the concentration that inhibits the measured activity by half.
